# Data as given in patent US20230295152A1 (SENDA BIOSCIENCES, INC., priority 2019, published 2023).
# Like-named read-outs stand apart in the source and are kept apart here.
# Legend:
# [1] = Hepatocyte Stability Assay, human; assay type: in vitro ADME; conditions: cryopreserved hepatocytes in suspension; human hepatocytes; read-out: Human hepatocyte clearance
# Method: • Preparation of working solutions: 10 mM stock solutions of test compound and positive control were prepared in DMSO. In separate conical tubes, the 10 mM solution of test compound and the positive control were diluted to 100 μM by combining 198 μL of 50% acetonitrile/50% water and 2 μL of 10 mM stock.
# Preparation of Hepatocytes: Incubation medium (William's E Medium supplemented with GlutaMAX) and hepatocyte thawing medium were placed in a 37° C. water bath and allowed warming for at least 15 minutes prior to use. A vial of cryopreserved hepatocytes was transferred from storage, ensuring that vials remained at cryogenic temperatures until thawing process ensued. Cells were thawed by placing the vial in a 37° C. water bath and gently shaking the vials for 2 minutes. After thawing was completed, vial was sprayed with 70% ethanol and transferred to a biosafety cabinet. Wide-bore pipette tip were used to transfer hepatocytes into 50 mL conical tube containing thawing medium. The 50 mL conical tube were placed into a centrifuge and spun at 100 g for 10 minutes. Upon completion of spin, thawing medium was aspirated and resuspended hepatocytes in enough incubation medium to yield ˜1.5×10^6 cells/mL. Using an AO/PI Staining, cells were counted and the viable cell density was determined. Cells with poor viability (<75% viability) were determined to be not acceptable for use. Cells were diluted with incubation medium to a working cell density of 0.5×10^6 viable cells/mL.
# Procedure for Stability Determination: 198 μL of hepatocytes were pipetted into each wells of a 96-well non-coated plate. The plate was placed in the incubator to allow the hepatocytes to warm for 10 minutes. 2 μL of the 100 μM test compound or positive control solutions were pipetted into respective wells of the 96-well non-coated plate to start the reaction. The plate was returned to the incubator for the designed time points. Well contents was transferred in 25 μL aliquots at time points of 0, 15, 30, 60, 90 and 120 minutes. The aliquots were then mixed with 6 volumes (150 μL) of acetonitrile containing internal standard, IS (100 nM alprazolam, 200 nM caffeine and 100 nM tolbutamide) to terminate the reaction. The mixture was vortex for 5 minutes. Samples were centrifuged for 45 minutes at 3,220 g. An aliquot of 100 μL of the supernatant was diluted by 100 μL ultra-pure water, and the mixture was used for LC/MS/MS analysis. All incubations were performed in duplicate.
# Data Analysis: All calculations were carried out using Microsoft Excel. Peak areas were determined from extracted ion chromatograms. In vitro half-life (t1/2) of parent compound was determined by regression analysis of the percent parent disappearance vs. time curve.
# The in vitro half-life (in vitro t1/2) was determined from the slope value:
# Conversion of the in vitro t1/2 (in min) into the in vitro intrinsic clearance (in vitro CLint, in μL/min/1×10^6 cells) was done using the following equation (mean of duplicate determinations):
# V=incubation volume(0.2 mL);
# N=number of hepatocytes per well(0.1×10^6 cells).
# “+++” indicates a CLint value less than 20 mL/min/Kg, “++” indicates a CLint between 20 and 50 mL/min/Kg, and “+” indicates an CLint above 50 mL/min/Kg.
# [2] = Solubility Determination Assay in PBS pH 1.6 and pH 7.4; assay type: physicochemical; conditions: PBS buffer, aqueous buffer, kinetic from dmso stock
# How it was run: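 Compounds from 10 mM DMSO stock diluted into PBS pH 1.6 or pH 7.4 (15 μL into 485 μL), stirred 2 hours, then filtered. Filtrate quantified by LC-MS/MS against a standard of known concentration with internal standard; single determination.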
# [3] = PBS pH 1.6, 25° C., read-out: Aq. Solubility at pH = 1.6
# [4] = PBS pH 7.4, 25° C., read-out: Aq. Solubility at pH = 7.4
Structure (SMILES),CLint scaled at 1 μM [1],"solubility at 2 h [2, 3]","solubility at 2 h [2, 4]"
"O=c1c2cc(-c3ccc(Cl)cc3)nc(-c3cccnc3)c2ncn1[C@@H]1COC[C@H]1O [Compound 152, 6-(4-chlorophenyl)-3-((3R,4S)-4-hydroxytetrahydrofuran-3-yl)-8-(pyridin-3-yl)pyrido[3,4-d]pyrimidin-4(3H)-one]",1.2 to 3 L/h/kg,≥ 1 µM,≥ 1 µM
"CC(C)(O)Cn1cnc2c(-c3cnsc3)nc(-c3ccc(C(F)(F)F)cn3)cc2c1=O [Compound 101, 3-(2-hydroxy-2-methylpropyl)-8-(isothiazol-4-yl)-6-(5-(trifluoromethyl)pyridin-2-yl)pyrido[3,4-d]pyrimidin-4(3H)-one]",< 1.2 L/h/kg,0.1 to 1 µM,< 0.1 µM
C[C@@H](n1cnc2c(-c3cccnc3)nc(-c3ccc(Cl)cc3)cc2c1=O)C(C)(C)O [Compound 33],< 1.2 L/h/kg,,< 0.1 µM
"C[C@@H](CO)n1cnc2c(-n3ccnc3)nc(-c3ccc(C(F)(F)F)cn3)cc2c1=O [Compound 162, (S)-3-(1-hydroxypropan-2-yl)-8-(1H-imidazol-1-yl)-6-(5-(trifluoromethyl)pyridin-2-yl)pyrido[3,4-d]pyrimidin-4(3H)-one]",< 1.2 L/h/kg,≥ 1 µM,≥ 1 µM
"O=c1c2cc(-c3ccc(Cl)cc3)nc(-c3cccnc3)c2ncn1C[C@H](O)C(F)(F)F (single isomer, unassigned) [185 enantiomer 2]",< 1.2 L/h/kg,≥ 1 µM,0.1 to 1 µM
"C[C@H](O)Cn1cnc2c(-c3cccnc3)nc(-c3ccc(C(F)(F)F)cn3)cc2c1=O [Compound 143, (S)-3-(2-hydroxypropyl)-8-(pyridin-3-yl)-6-(5-(trifluoromethyl)pyridin-2-yl)pyrido[3,4-d]pyrimidin-4(3H)-one]",< 1.2 L/h/kg,≥ 1 µM,≥ 1 µM
"C[C@@H](O)Cn1cnc2c(-c3cccnc3)nc(-c3ccc(C(F)(F)F)cn3)cc2c1=O [Compound 144, (R)-3-(2-hydroxypropyl)-8-(pyridin-3-yl)-6-(5-(trifluoromethyl)pyridin-2-yl)pyrido[3,4-d]pyrimidin-4(3H)-one]",< 1.2 L/h/kg,≥ 1 µM,≥ 1 µM
"O=c1c2cc(-c3ccc(C(F)(F)F)nc3)nc(-c3cccnc3)c2ncn1C[C@@H](O)C(F)(F)F [Compound 122, (R)-8-(pyridin-3-yl)-3-(3,3,3-trifluoro-2-hydroxypropyl)-6-(6-(trifluoromethyl)pyridin-3-yl)pyrido[3,4-d]pyrimidin-4(3H)-one]",< 1.2 L/h/kg,≥ 1 µM,≥ 1 µM
"O=c1c2cc(-c3ccc(Cl)cc3)nc(-c3cccnc3)c2ncn1[C@H]1COC[C@@H]1O [Compound 125, 6-(4-chlorophenyl)-3-((3S,4R)-4-hydroxytetrahydrofuran-3-yl)-8-(pyridin-3-yl)pyrido[3,4-d]pyrimidin-4(3H)-one]",< 1.2 L/h/kg,≥ 1 µM,≥ 1 µM
"C[C@@H](CO)n1cnc2c(-c3cncc(F)c3)nc(-c3ccc(OC(F)(F)F)cc3)cc2c1=O [Compound 1, (S)-8-(5-fluoropyridin-3-yl)-3-(1-hydroxypropan-2-yl)-6-(4-(trifluoromethoxy)phenyl)pyrido[3,4-d]pyrimidin-4(3H)-one]",< 1.2 L/h/kg,,0.1 to 1 µM
"CC(C)(O)Cn1cnc2c(-n3ccnc3)nc(-c3ccc(C(F)(F)F)cn3)cc2c1=O [Compound 160, 3-(2-hydroxy-2-methylpropyl)-8-(1H-imidazol-1-yl)-6-(5-(trifluoromethyl)pyridin-2-yl)pyrido[3,4-d]pyrimidin-4(3H)-one]",< 1.2 L/h/kg,≥ 1 µM,≥ 1 µM
Cn1cc(-c2nc(-c3ccc(Cl)cc3)cc3c(=O)n(CC(C)(C)O)cnc23)cn1 [Compound 21],< 1.2 L/h/kg,≥ 1 µM,≥ 1 µM
C[C@H](n1cnc2c(-c3cnn(C)c3)nc(-c3ccc(Cl)cc3)cc2c1=O)C(C)(C)O [Compound 30],< 1.2 L/h/kg,,0.1 to 1 µM
"C[C@@H](CO)n1cnc2c(-c3cccc(F)c3)nc(-c3ccc(C(F)(F)F)cn3)cc2c1=O [Compound 47, (S)-8-(3-fluorophenyl)-3-(1-hydroxypropan-2-yl)-6-(5-(trifluoromethyl)pyridin-2-yl)pyrido[3,4-d]pyrimidin-4(3H)-one]",< 1.2 L/h/kg,,0.1 to 1 µM
"CNC(=O)[C@H](C)n1cnc2c(-c3cccnc3)nc(-c3ccc(C(F)(F)F)nc3)cc2c1=O [Compound 156, (S)—N-methyl-2-(4-oxo-8-(pyridin-3-yl)-6-(6-(trifluoromethyl)pyridin-3-yl)pyrido[3,4-d]pyrimidin-3(4H)-yl)propanamide]",< 1.2 L/h/kg,≥ 1 µM,≥ 1 µM
C[C@@H](CO)n1cnc2c(-c3cccnc3)nc(-c3cnc(C(F)(F)F)nc3)cc2c1=O [Compound 86],< 1.2 L/h/kg,≥ 1 µM,≥ 1 µM

# The next lines start with the values.
CLint scaled at 1 μM [1],"solubility at 2 h [2, 3]","solubility at 2 h [2, 4]",Structure (SMILES)
< 1.2 L/h/kg,≥ 1 µM,≥ 1 µM,"O=c1c2cc(-c3ccc(C(F)(F)F)nc3)nc(-c3cccnc3)c2ncn1[C@H]1COC[C@H]1O [Compound 126, 3-((3S,4S)-4-hydroxytetrahydrofuran-3-yl)-8-(pyridin-3-yl)-6-(6-(trifluoromethyl)pyridin-3-yl)pyrido[3,4-d]pyrimidin-4(3H)-one]"
< 1.2 L/h/kg,≥ 1 µM,≥ 1 µM,C[C@@H](CO)n1cnc2c(-c3cccnc3)nc(-c3ccc(C(F)(F)F)nc3)cc2c1=O [Compound 12]
< 1.2 L/h/kg,0.1 to 1 µM,0.1 to 1 µM,"C[C@H](O)Cn1cnc2c(-c3cnn(C)c3)nc(-c3ccc(C(F)(F)F)nc3)cc2c1=O [Compound 109, (S)-3-(2-hydroxypropyl)-8-(1-methyl-1H-pyrazol-4-yl)-6-(6-(trifluoromethyl)pyridin-3-yl)pyrido[3,4-d]pyrimidin-4(3H)-one]"
< 1.2 L/h/kg,0.1 to 1 µM,0.1 to 1 µM,"Cn1cc(-c2nc(-c3ccc(C(F)(F)F)nc3)cc3c(=O)n([C@@H]4COC[C@H]4O)cnc23)cn1 [Compound 115, 3-((3R,4S)-4-hydroxytetrahydrofuran-3-y1)-8-(1-methyl-1H-pyrazol-4-y1)-6-(6-(trifluoromethyl)pyridin-3-yl)pyrido[3,4-d]pyrimidin-4(3H)-one]"
< 1.2 L/h/kg,≥ 1 µM,0.1 to 1 µM,Cn1cc(-c2nc(-c3cnc(C(F)(F)F)nc3)cc3c(=O)n(CC(C)(C)O)cnc23)cn1 [Compound 99]
< 1.2 L/h/kg,≥ 1 µM,≥ 1 µM,C[C@@H](CO)n1cnc2c(-c3cnn(C)c3)nc(-c3ccc(C(F)(F)F)nc3)cc2c1=O [Compound 68]
< 1.2 L/h/kg,≥ 1 µM,≥ 1 µM,CC(C)(O)Cn1cnc2c(-c3cnsc3)nc(-c3ccc(C(F)(F)F)nc3)cc2c1=O [Compound 54]
< 1.2 L/h/kg,≥ 1 µM,≥ 1 µM,O=c1c2cc(-c3ccc(C(F)(F)F)nc3)nc(-c3cccnc3)c2ncn1[C@@H]1COC[C@H]1O [Compound 79]
< 1.2 L/h/kg,≥ 1 µM,≥ 1 µM,"O=c1c2cc(-c3ccc(C(F)(F)F)cn3)nc(-c3cccnc3)c2ncn1[C@@H]1COC[C@H]1O [Compound 140, 3-((3R,4S)-4-hydroxytetrahydrofuran-3-yl)-8-(pyridin-3-yl)-6-(5-(trifluoromethyl)pyridin-2-yl)pyrido[3,4-d]pyrimidin-4(3H)-one]"
